These results are taken from patent publication US20260224716A1, “PTH ANALOGS FOR THE TREATMENT OF HYPOPARATHYROIDISM” (priority 2020, published 2026).

Where a SMILES comes first, the peptide text is derived from it. [ ]: non-standard residue; d: D form. The star is where a group is joined. Isobutyryl(2-OH) = CC(C)(O)C(=O)*; Deg = CCC(N)(CC)C(=O)O; Aib = CC(C)(N)C(=O)O

Data set [1] can be described thus: Rate of model dipeptide cleavage from hexapeptide in PBS (HPLC, LC-MS). The data set is classed as physicochemical. Conditions: for half-life at 1 mg/ml: buffer; for t1/2: cleavage of dipeptide A-B from model hexapeptide in PBS, 37° C., unit not given or result in words. The procedure:
The solution was incubated at 37° C.
The flow rate was 1 ml/min.

A short description of data set [2]: Cleavage half-life / conversion of PTH prodrugs in PBS pH 7.4, 37° C. by LC-MS. The data set is classed as physicochemical. The conditions noted are these: PBS buffer; dipeptide cleavage from PTH prodrug, PBS pH 7.4, 37° C.; read-out: Half life (converted). The procedure: The resulting solution was incubated at 37° C. Aliquots were taken at designed time points and analyzed by LC-MS. […] Flow rate of 1 mL/min and a gradient of 10%-80% acetonitrile in water, with 0.1% trifluoroacetic acid over 10 min. […] The concentration of prodrug and drug were determined by their relative peak areas. The […] dissociation rate constant of the prodrug was determined by plotting the logarithm in the concentration of the prodrug at various time points.

A further data set deals with T1, PTH1 receptor (Homo sapiens, UniProt Q03431).
T1 construct: expressed in transfected cells; host or cells: HEK293
T1 sequence (Q03431 27-593): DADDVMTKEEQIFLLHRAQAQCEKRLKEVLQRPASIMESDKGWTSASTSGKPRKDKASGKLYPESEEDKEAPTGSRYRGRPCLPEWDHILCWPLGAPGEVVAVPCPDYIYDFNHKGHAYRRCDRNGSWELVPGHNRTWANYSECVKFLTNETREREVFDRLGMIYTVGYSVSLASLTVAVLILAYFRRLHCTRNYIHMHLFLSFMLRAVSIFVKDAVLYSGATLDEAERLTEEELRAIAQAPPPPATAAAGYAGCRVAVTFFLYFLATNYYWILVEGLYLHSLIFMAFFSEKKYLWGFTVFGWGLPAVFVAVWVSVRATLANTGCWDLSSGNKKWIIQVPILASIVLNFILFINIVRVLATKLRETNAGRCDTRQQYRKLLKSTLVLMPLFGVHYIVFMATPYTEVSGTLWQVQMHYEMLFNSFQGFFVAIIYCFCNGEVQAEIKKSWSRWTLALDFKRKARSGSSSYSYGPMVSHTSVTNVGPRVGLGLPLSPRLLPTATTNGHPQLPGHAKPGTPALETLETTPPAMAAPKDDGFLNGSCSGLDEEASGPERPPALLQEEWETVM
Kind of data set: Luciferase-based reporter gene assay for cAMP detection (HEK293 cells). Type of data set: cell-based. The conditions noted are these: for potency at the PTH receptor: luciferase reporter of cAMP production; for EC50: HEK293 cells, PTH1 receptor, cAMP-responsive luciferase, 5 hours, read-out: Potency EC50. The procedure:
At the end of the incubation, 50 μL of Steady-Lite Plus (PerkinElmer, Waltham, MA) were added to each well. The plate was shaken briefly, incubated four minutes and light output was measured on an EnSpire Alpha Multi-mode Plate Reader (PerkinElmer, Waltham, MA).

In general, half-life refers to how long it takes for the measured level to halve. Regarding `C[C@@H](O)[C@H](NC(=O)CNC(=O)[C@H](CCCNC(=N)N)NC(=O)[C@H](CO)NC(=O)[C@H](Cc1c[nH]cn1)NC(=O)[C@@H]1CCCN1C(=O)C(C)(C)N)C(=O)N[C@@H](Cc1ccccc1)C(N)=O` [compound 14] (H-[Aib]PHSRGTF-NH2), the half-life at 1 mg/ml in data set [1] is 32 h.
As to `CC[C@H](C)[C@H](NC(=O)[C@H](CCC(=O)O)NC(=O)[C@H](CO)NC(=O)[C@@H](NC(=O)[C@H](CO)NC(=O)CN(C)C(=O)[C@H](N)CCCCNC(=O)CC[C@H](NC(=O)CCCCCCCCCCCCCCCCC(=O)O)C(=O)O)C(C)C)C(=O)N[C@@H](CCC(N)=O)C(=O)N[C@@H](CC(C)C)C(=O)N[C@@H](CCSC)C(=O)N[C@@H](Cc1c[nH]cn1)C(=O)N[C@@H](CC(N)=O)C(=O)N[C@@H](CC(C)C)C(=O)NCC(=O)N[C@@H](CCCCN)C(=O)N[C@@H](Cc1c[nH]cn1)C(=O)N[C@@H](CC(C)C)C(=O)N[C@@H](CC(N)=O)C(=O)N[C@@H](CO)C(=O)N[C@@H](CCSC)C(=O)N[C@@H](CCC(=O)O)C(=O)N[C@@H](CCCNC(=N)N)C(=O)N[C@H](C(=O)N[C@@H](CCC(=O)O)C(=O)N[C@@H](Cc1c[nH]c2ccccc12)C(=O)N[C@@H](CC(C)C)C(=O)N[C@@H](CCCNC(=N)N)C(=O)N[C@@H](CCCCN)C(=O)N[C@@H](CCCCN)C(=O)N[C@@H](CC(C)C)C(=O)N[C@@H](CCC(N)=O)C(=O)N[C@@H](CC(=O)O)C(=O)N[C@H](C(=O)N[C@@H](Cc1c[nH]cn1)C(=O)N[C@@H](CC(N)=O)C(=O)N[C@@H](Cc1ccccc1)C(=O)N[C@@H](CCCCNC(=O)CC[C@H](NC(=O)CCCCCCCCCCCCCCCCC(=O)O)C(=O)O)C(N)=O)C(C)C)C(C)C` [SEQ ID NO: 58], the half-life in data set [2] was 73 h. At PTH1 receptor (FIGS. 3A, 3B), the “potency at the PTH receptor” value is given as “low potency”.
With “13 (XXSVSEIQLMHNLGKHLNSMERVEWLRKKLQDVHNFX; SITE 1 MISC_FEATURE - Xaa at position 1 is acylated dLys; SITE 2 MISC_FEATURE - Xaa at position 2 is N-methyl Gly; SITE 37 MISC_FEATURE - Xaa at position 37 is an acylated Lys; SITE 37 MISC_FEATURE - C-terminal carboxyl group replaced with an amide; listed as Homo sapiens) [compound 13]”, in data set [1], the t1/2 result is on record as “No cleavage”.
Consider `CCC(N)(CC)C(=O)N1CCC[C@H]1C(=O)N[C@@H](Cc1c[nH]cn1)C(=O)N[C@@H](CO)C(=O)N[C@@H](CCCNC(=N)N)C(=O)NCC(=O)N[C@H](C(=O)N[C@@H](Cc1ccccc1)C(N)=O)[C@@H](C)O` [compound 20] (H-[Deg]PHSRGTF-NH2), for which the half-life at 1 mg/ml in data set [1] is 46 h.
`C[C@@H](O)[C@H](NC(=O)CNC(=O)[C@H](CCCNC(=N)N)NC(=O)[C@H](CO)NC(=O)[C@H](Cc1c[nH]cn1)NC(=O)[C@@H]1CCCN1C(=O)C(C)(C)O)C(=O)N[C@@H](Cc1ccccc1)C(N)=O` [compound 21] ({Isobutyryl(2-OH)}-PHSRGTF-NH2) gave a half-life at 1 mg/ml in data set [1] of 61 h.
Take “11 (XXSVSEIQLMHNLGKHLNSMERVEWLRKKLQDVHNF; SITE 1 MISC_FEATURE - Xaa at position 1 is acylated dLys; SITE 2 MISC_FEATURE - Xaa at position 2 is N-methyl Gly; listed as Homo sapiens) [compound 11]”: in data set [1], the t1/2 result was “No cleavage”.
For the compound `C[C@@H](O)[C@H](NC(=O)CNC(=O)[C@H](CCCNC(=N)N)NC(=O)[C@H](CO)NC(=O)[C@@H](Cc1c[nH]cn1)NC(=O)[C@@H]1CCCN1C(=O)C(C)(C)N)C(=O)N[C@@H](Cc1ccccc1)C(N)=O` [compound 16] (H-[Aib]P[dH]SRGTF-NH2), in data set [1], the half-life at 1 mg/ml was 16 h.
`C[C@@H](O)[C@H](NC(=O)CNC(=O)[C@H](CCCNC(=N)N)NC(=O)[C@H](CO)NC(=O)[C@H](Cc1c[nH]cn1)NC(=O)[C@H]1CCCN1C(=O)C(C)(C)N)C(=O)N[C@@H](Cc1ccccc1)C(N)=O` [compound 15] (H-[Aib][dP]HSRGTF-NH2): the half-life at 1 mg/ml in data set [1] is 20 h.
In the case of “k(N-Me)GSVSEIQLMHNLGKHLNSMERVEWLRKKLQDVHK(γE-(miniPEG)2-γE-COC16H32CO2H)-OH [SEQ ID NO: 80]”, the “potency at the PTH receptor” value with PTH1 receptor (FIG. 4) is reported as “decreases the potency”.
For the compound “7 (SVSEIQLMHNLGKHLNSMERVEWLRKKLQDVH; listed as Homo sapiens) [compound 7]”, the t1/2 entry in data set [1] was “No cleavage”.
For the compound “12 (SVSEIQLMHNLGKHLNSMERVEWLRKKLQDVHNFX; VARIANT 35 MISC_FEATURE - Xaa at position 35 is an acylated Lys; SITE 35 MISC_FEATURE - C-terminal carboxyl group replaced with an amide; listed as Homo sapiens) [compound 12]”, the t1/2 entry in data set [1] was “No cleavage”.
As a reminder, the EC50 is the concentration that produces a half-maximal response. Turning to `CC[C@H](C)[C@H](NC(=O)[C@H](CCC(=O)O)NC(=O)[C@H](CO)NC(=O)[C@@H](NC(=O)[C@H](CO)NC(=O)CN(C)C(=O)[C@H](N)CCCCNC(=O)CC[C@H](NC(=O)CCCCCCCCCCCCCCCCC(=O)O)C(=O)O)C(C)C)C(=O)N[C@@H](CCC(N)=O)C(=O)N[C@@H](CC(C)C)C(=O)N[C@@H](CCSC)C(=O)N[C@@H](Cc1c[nH]cn1)C(=O)N[C@@H](CC(N)=O)C(=O)N[C@@H](CC(C)C)C(=O)NCC(=O)N[C@@H](CCCCN)C(=O)N[C@@H](Cc1c[nH]cn1)C(=O)N[C@@H](CC(C)C)C(=O)N[C@@H](CC(N)=O)C(=O)N[C@@H](CO)C(=O)N[C@@H](CCSC)C(=O)N[C@@H](CCC(=O)O)C(=O)N[C@@H](CCCNC(=N)N)C(=O)N[C@H](C(=O)N[C@@H](CCC(=O)O)C(=O)N[C@@H](Cc1c[nH]c2ccccc12)C(=O)N[C@@H](CC(C)C)C(=O)N[C@@H](CCCNC(=N)N)C(=O)N[C@@H](CCCCN)C(=O)N[C@@H](CCCCN)C(=O)N[C@@H](CC(C)C)C(=O)N[C@@H](CCC(N)=O)C(=O)N[C@@H](CC(=O)O)C(=O)N[C@H](C(=O)N[C@@H](Cc1c[nH]cn1)C(=O)N[C@@H](CC(N)=O)C(=O)N[C@@H](Cc1ccccc1)C(=O)O)C(C)C)C(C)C` [SEQ ID NO: 45], the half-life in data set [2] was 90 h. The “potency at the PTH receptor” value on PTH1 receptor (FIGS. 3A, 3B) was “decreases the potency”. Besides, the EC50 at PTH1 receptor was 45.5 nM.
On to `CC[C@H](C)[C@H](NC(=O)[C@H](CCC(=O)O)NC(=O)[C@H](CO)NC(=O)[C@@H](NC(=O)[C@@H](N)CO)C(C)C)C(=O)N[C@@H](CCC(N)=O)C(=O)N[C@@H](CC(C)C)C(=O)N[C@@H](CCSC)C(=O)N[C@@H](Cc1c[nH]cn1)C(=O)N[C@@H](CC(N)=O)C(=O)N[C@@H](CC(C)C)C(=O)NCC(=O)N[C@@H](CCCCN)C(=O)N[C@@H](Cc1c[nH]cn1)C(=O)N[C@@H](CC(C)C)C(=O)N[C@@H](CC(N)=O)C(=O)N[C@@H](CO)C(=O)N[C@@H](CCSC)C(=O)N[C@@H](CCC(=O)O)C(=O)N[C@@H](CCCNC(=N)N)C(=O)N[C@H](C(=O)N[C@@H](CCC(=O)O)C(=O)N[C@@H](Cc1c[nH]c2ccccc12)C(=O)N[C@@H](CC(C)C)C(=O)N[C@@H](CCCNC(=N)N)C(=O)N[C@@H](CCCCN)C(=O)N[C@@H](CCCCN)C(=O)N[C@@H](CC(C)C)C(=O)N[C@@H](CCC(N)=O)C(=O)N[C@@H](CC(=O)O)C(=O)N[C@H](C(=O)N[C@@H](Cc1c[nH]cn1)C(=O)N[C@@H](CC(N)=O)C(=O)N[C@@H](Cc1ccccc1)C(=O)N[C@@H](CCCCNC(=O)CC[C@H](NC(=O)CCCCCCCCCCCCCCCCC(=O)O)C(=O)O)C(N)=O)C(C)C)C(C)C` [SEQ ID NO: 56], for which the “potency at the PTH receptor” value at PTH1 receptor (FIGS. 3A, 3B) is recorded as “retains high potency”. Also, the EC50 on PTH1 receptor was 2.9 nM.
